Legend:
[1] = target: MAP kinase-activated protein kinase 2 (Homo sapiens) (UniProt P49137); conditions: Compound concentration 1000.0 nM
[2] = target: LIM domain kinase 1 (Homo sapiens) (UniProt P53667); conditions: Compound concentration 1000.0 nM
[3] = target: Inhibitor of nuclear factor kappa-B kinase subunit epsilon (Homo sapiens) (UniProt Q14164); conditions: Compound concentration 1000.0 nM
[4] = target: Serine/threonine-protein kinase haspin (Homo sapiens) (UniProt Q8TF76); conditions: Compound concentration 1000.0 nM
[5] = target: Sigma non-opioid intracellular receptor 1 (Homo sapiens) (UniProt Q99720); conditions: Compound concentration 10.0 uM
Sequence of Sigma non-opioid intracellular receptor 1 (Homo sapiens) (Q99720 whole entry): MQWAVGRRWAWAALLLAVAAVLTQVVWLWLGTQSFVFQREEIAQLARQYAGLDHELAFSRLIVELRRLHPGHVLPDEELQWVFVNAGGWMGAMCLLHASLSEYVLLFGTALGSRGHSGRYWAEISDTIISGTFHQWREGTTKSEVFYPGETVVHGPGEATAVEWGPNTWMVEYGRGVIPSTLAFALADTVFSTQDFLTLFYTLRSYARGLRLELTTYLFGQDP

[6] = target: SNF-related serine/threonine-protein kinase (Homo sapiens) (UniProt Q9NRH2); conditions: Compound concentration 1000.0 nM
[7] = target: Serine/threonine-protein kinase Sgk3 (Homo sapiens) (UniProt Q96BR1); conditions: Compound concentration 1000.0 nM
[8] = target: Tyrosine-protein kinase ZAP-70 (Homo sapiens) (UniProt P43403); conditions: Compound concentration 1000.0 nM
[9] = target: Death-associated protein kinase 2 (Homo sapiens) (UniProt Q9UIK4); conditions: Compound concentration 1000.0 nM
[10] = target: Serine/threonine-protein kinase NIM1 (Homo sapiens) (UniProt Q8IY84); conditions: Compound concentration 1000.0 nM
Sequence of Serine/threonine-protein kinase NIM1 (Homo sapiens) (Q8IY84 whole entry): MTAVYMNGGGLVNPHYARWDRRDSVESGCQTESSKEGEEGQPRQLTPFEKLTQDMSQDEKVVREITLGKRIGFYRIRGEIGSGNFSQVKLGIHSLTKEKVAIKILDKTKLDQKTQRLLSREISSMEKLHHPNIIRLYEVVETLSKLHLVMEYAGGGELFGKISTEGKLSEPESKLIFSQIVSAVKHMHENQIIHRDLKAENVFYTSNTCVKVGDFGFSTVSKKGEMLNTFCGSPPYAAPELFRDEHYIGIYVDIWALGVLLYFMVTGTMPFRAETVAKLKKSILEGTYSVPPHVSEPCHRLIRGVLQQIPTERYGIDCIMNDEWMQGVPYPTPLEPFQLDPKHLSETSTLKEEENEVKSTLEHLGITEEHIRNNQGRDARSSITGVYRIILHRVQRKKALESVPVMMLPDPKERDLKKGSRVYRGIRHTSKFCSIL

[11] = target: Vascular endothelial growth factor receptor 2 (Homo sapiens) (UniProt P35968); conditions: Compound concentration 1000.0 nM
[12] = target: Mitogen-activated protein kinase kinase kinase 20 (Homo sapiens) (UniProt Q9NYL2); conditions: Compound concentration 1000.0 nM
[13] = target: Macrophage colony-stimulating factor 1 receptor (Homo sapiens) (UniProt P07333); conditions: Compound concentration 1000.0 nM
[14] = target: G protein-coupled receptor kinase 4 (Homo sapiens) (UniProt P32298); conditions: Compound concentration 1000.0 nM
Sequence of G protein-coupled receptor kinase 4 (Homo sapiens) (P32298 whole entry, looked up): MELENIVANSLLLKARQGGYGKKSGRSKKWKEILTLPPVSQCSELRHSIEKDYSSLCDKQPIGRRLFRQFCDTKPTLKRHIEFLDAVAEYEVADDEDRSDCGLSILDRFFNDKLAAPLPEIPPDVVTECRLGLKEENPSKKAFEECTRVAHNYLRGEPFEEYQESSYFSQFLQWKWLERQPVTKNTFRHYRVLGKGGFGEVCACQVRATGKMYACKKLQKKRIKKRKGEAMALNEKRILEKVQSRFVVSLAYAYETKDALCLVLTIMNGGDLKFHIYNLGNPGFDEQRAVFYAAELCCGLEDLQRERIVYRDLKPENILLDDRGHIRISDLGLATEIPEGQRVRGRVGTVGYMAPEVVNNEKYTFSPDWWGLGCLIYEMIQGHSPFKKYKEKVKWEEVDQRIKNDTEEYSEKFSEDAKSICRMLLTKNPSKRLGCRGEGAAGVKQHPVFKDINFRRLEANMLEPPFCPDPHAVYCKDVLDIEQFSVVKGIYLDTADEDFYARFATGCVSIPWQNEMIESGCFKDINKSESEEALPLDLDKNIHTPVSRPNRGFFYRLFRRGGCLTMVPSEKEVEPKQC

[15] = target: Serine/threonine-protein kinase PAK 5 (Homo sapiens) (UniProt Q9P286); conditions: Compound concentration 1000.0 nM
[16] = test system: Epidermal growth factor receptor (Homo sapiens), P00533 [G719C]; conditions: Compound concentration 1000.0 nM
[17] = test system: Receptor-type tyrosine-protein kinase FLT3 (Homo sapiens), P36888 [R834Q]; conditions: Compound concentration 1000.0 nM
[18] = target: Alpha-1B adrenergic receptor (Homo sapiens) (UniProt P35368); conditions: Compound concentration 10.0 uM
[19] = target: 5-hydroxytryptamine receptor 1B (Homo sapiens) (UniProt P28222); conditions: Compound concentration 10.0 uM
[20] = target: GABA-A receptor; anion channel (Rattus norvegicus) (UniProt O09028+P15431+P18506+P18508+P19969+P20236+P23574+P23576+P28471+P28473+P30191+P62813+P63079+P63138+Q91ZM7+Q9ES14); conditions: Compound concentration 10.0 uM
[21] = target: Mitogen-activated protein kinase 15 (Homo sapiens) (UniProt Q8TD08); conditions: Compound concentration 1000.0 nM
[22] = test system: Phosphatidylinositol 4,5-bisphosphate 3-kinase catalytic subunit alpha isoform (Homo sapiens), P42336 [Q546K]; conditions: Compound concentration 1000.0 nM
[23] = target: Serine/threonine-protein kinase 17A (Homo sapiens) (UniProt Q9UEE5); conditions: Compound concentration 1000.0 nM
[24] = target: Casein kinase I isoform delta (Homo sapiens) (UniProt P48730); conditions: Compound concentration 1000.0 nM
[25] = target: Casein kinase I isoform gamma-1 (Homo sapiens) (UniProt Q9HCP0); conditions: Compound concentration 1000.0 nM
Sequence of Casein kinase I isoform gamma-1 (Homo sapiens) (Q9HCP0 whole entry, looked up, canonical isoform): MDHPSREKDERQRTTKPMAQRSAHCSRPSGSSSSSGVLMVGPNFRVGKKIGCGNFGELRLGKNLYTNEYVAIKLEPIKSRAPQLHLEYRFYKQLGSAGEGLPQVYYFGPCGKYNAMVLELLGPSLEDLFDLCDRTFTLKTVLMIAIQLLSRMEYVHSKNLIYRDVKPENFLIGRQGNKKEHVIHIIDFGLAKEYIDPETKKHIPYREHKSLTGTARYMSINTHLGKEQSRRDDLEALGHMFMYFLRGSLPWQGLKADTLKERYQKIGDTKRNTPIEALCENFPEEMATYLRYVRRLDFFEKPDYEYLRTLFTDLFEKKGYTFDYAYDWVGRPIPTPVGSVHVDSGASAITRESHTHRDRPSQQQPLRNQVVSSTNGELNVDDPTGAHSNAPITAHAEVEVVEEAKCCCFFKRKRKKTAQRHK

[26] = target: Serine/threonine-protein kinase DCLK2 (Homo sapiens) (UniProt Q8N568); conditions: Compound concentration 1000.0 nM
Sequence of Serine/threonine-protein kinase DCLK2 (Homo sapiens) (Q8N568 whole entry): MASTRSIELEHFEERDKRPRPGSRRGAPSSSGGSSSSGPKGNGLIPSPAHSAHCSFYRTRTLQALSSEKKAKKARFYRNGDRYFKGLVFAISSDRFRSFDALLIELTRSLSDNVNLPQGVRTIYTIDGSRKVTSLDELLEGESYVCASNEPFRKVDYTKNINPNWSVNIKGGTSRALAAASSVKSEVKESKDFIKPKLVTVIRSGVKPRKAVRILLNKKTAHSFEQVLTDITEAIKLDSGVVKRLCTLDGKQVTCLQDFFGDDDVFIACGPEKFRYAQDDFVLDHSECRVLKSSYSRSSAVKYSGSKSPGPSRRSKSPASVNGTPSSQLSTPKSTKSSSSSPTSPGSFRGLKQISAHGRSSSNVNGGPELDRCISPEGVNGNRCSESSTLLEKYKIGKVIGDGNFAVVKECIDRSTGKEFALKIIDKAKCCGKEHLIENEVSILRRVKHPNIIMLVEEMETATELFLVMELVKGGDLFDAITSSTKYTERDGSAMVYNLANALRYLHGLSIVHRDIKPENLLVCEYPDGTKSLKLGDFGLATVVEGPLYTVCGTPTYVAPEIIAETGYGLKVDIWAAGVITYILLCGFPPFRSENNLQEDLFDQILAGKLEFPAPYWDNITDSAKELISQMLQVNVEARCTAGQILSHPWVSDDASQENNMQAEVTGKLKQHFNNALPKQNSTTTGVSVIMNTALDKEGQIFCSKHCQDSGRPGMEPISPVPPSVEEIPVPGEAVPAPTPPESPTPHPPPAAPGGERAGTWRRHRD

[27] = test system: Mast/stem cell growth factor receptor Kit (Homo sapiens), P10721 [V559D,V654A]; conditions: Compound concentration 1000.0 nM
[28] = test system: Phosphatidylinositol 4,5-bisphosphate 3-kinase catalytic subunit alpha isoform (Homo sapiens), P42336 [C420R]; conditions: Compound concentration 1000.0 nM
[29] = target: Tyrosine-protein kinase Fes/Fps (Homo sapiens) (UniProt P07332); conditions: Compound concentration 1000.0 nM
[30] = target: 5-hydroxytryptamine receptor 3A (Homo sapiens) (UniProt P46098); conditions: Compound concentration 10.0 uM
[31] = target: Interleukin-1 receptor-associated kinase 1 (Homo sapiens) (UniProt P51617); conditions: Compound concentration 1000.0 nM
[32] = target: Receptor-type tyrosine-protein kinase FLT3 (Homo sapiens) (UniProt P36888); conditions: Compound concentration 1000.0 nM
[33] = target: Ribosomal protein S6 kinase alpha-5 (Homo sapiens) (UniProt O75582); conditions: Compound concentration 1000.0 nM
[34] = target: Serine/threonine-protein kinase 35 (Homo sapiens) (UniProt Q8TDR2); conditions: Compound concentration 1000.0 nM
[35] = target: Mitogen-activated protein kinase kinase kinase 4 (Homo sapiens) (UniProt Q9Y6R4); conditions: Compound concentration 1000.0 nM
[36] = target: Serine/threonine-protein kinase OSR1 (Homo sapiens) (UniProt O95747); conditions: Compound concentration 1000.0 nM
[37] = target: Cyclin-G-associated kinase (Homo sapiens) (UniProt O14976); conditions: Compound concentration 1000.0 nM
[38] = target: Atypical kinase COQ8A, mitochondrial (Homo sapiens) (UniProt Q8NI60); conditions: Compound concentration 1000.0 nM
Sequence of Atypical kinase COQ8A, mitochondrial (Homo sapiens) (Q8NI60 163-647 limits assumed): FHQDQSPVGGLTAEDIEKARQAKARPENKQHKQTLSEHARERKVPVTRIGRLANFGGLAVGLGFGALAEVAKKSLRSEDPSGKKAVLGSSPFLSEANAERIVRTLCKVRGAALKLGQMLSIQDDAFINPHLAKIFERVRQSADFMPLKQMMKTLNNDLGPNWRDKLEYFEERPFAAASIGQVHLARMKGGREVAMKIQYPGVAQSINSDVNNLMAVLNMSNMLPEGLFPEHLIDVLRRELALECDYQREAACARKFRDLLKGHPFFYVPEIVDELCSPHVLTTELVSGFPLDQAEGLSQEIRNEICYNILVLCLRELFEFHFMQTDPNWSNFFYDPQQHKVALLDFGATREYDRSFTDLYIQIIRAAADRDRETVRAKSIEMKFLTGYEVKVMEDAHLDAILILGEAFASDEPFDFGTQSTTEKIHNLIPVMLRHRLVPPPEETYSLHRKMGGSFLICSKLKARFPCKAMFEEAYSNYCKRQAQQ

[39] = target: Serine/threonine-protein kinase MRCK alpha (Homo sapiens) (UniProt Q5VT25); conditions: Compound concentration 1000.0 nM
[40] = test system: Tyrosine-protein kinase ABL1 (Homo sapiens), P00519 [F317I]; conditions: Compound concentration 1000.0 nM
[41] = target: Tyrosine-protein kinase ABL1 (Homo sapiens) (UniProt P00519); conditions: Compound concentration 1000.0 nM
[42] = target: Ephrin type-B receptor 3 (Homo sapiens) (UniProt P54753); conditions: Compound concentration 1000.0 nM
[43] = target: Fibroblast growth factor receptor 2 (Homo sapiens) (UniProt P21802); conditions: Compound concentration 1000.0 nM
Sequence of Fibroblast growth factor receptor 2 (Homo sapiens) (P21802 22-821 limits assumed): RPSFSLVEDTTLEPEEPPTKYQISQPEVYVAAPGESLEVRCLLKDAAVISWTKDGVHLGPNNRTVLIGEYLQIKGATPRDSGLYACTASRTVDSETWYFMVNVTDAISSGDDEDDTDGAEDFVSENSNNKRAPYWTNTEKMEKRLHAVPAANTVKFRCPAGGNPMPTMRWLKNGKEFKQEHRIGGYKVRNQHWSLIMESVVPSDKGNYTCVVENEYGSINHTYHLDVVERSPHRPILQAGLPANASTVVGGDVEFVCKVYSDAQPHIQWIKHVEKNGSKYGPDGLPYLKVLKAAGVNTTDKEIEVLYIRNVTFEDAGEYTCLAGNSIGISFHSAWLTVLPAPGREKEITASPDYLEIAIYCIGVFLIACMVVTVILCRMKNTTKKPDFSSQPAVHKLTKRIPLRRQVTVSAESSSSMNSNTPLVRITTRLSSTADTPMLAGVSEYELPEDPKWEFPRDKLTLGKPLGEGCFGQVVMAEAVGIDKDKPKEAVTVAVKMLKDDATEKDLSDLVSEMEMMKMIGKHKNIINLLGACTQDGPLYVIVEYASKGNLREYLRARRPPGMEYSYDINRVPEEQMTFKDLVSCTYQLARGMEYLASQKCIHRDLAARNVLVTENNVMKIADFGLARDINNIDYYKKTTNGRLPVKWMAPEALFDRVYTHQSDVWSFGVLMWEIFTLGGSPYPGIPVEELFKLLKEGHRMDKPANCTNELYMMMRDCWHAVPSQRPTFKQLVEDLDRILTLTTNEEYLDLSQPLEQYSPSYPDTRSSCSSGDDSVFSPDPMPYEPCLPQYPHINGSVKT

[44] = target: Aurora kinase A (Homo sapiens) (UniProt O14965); conditions: Compound concentration 1000.0 nM

Sequence of LIM domain kinase 1 (Homo sapiens) (P53667 whole entry, looked up, the tested form may be a part): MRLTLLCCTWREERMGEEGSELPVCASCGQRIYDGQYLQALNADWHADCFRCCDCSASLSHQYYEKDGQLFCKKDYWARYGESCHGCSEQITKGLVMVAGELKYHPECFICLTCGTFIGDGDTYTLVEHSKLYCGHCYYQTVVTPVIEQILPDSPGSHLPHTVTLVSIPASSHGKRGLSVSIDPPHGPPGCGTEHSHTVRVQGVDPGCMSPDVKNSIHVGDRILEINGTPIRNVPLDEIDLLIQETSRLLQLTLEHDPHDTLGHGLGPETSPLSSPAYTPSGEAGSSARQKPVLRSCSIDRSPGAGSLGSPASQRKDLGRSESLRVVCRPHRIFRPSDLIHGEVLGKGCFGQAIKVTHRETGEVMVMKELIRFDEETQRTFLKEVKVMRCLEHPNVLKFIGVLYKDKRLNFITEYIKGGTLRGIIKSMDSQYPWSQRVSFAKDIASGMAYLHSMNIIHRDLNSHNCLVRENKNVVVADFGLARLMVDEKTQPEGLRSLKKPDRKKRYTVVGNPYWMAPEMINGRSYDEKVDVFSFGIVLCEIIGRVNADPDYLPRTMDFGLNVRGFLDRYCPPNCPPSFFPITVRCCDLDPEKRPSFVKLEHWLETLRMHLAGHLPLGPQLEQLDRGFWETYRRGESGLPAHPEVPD
Sequence of MAP kinase-activated protein kinase 2 (Homo sapiens) (P49137 whole entry, looked up, the tested form may be a part): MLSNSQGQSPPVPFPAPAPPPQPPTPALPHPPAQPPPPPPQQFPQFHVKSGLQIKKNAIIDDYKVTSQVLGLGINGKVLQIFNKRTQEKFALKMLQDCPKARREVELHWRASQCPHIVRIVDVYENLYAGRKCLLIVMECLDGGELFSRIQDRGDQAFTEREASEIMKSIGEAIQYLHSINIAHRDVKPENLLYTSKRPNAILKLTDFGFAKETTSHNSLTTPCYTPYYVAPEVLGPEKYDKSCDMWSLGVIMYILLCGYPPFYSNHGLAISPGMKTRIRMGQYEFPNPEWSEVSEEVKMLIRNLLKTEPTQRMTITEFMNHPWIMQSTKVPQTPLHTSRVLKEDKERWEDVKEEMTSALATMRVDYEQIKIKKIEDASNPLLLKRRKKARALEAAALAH

Cc1c(NC(=O)c2cc(C(N)=O)nc3cc(F)ccc23)c(C(F)(F)F)nn1Cc1ccc(C(C)(C)C)cc1 [BAY-588]
residual activity [1]: 100% | residual activity [2]: 100% | residual activity [3]: 100% | residual activity [4]: 100% | inhibition [5]: 6.28% | residual activity [6]: 93% | residual activity [7]: 94% | residual activity [8]: 100% | residual activity [9]: 76% | residual activity [10]: 100% | residual activity [11]: 100% | residual activity [12]: 100% | residual activity [13]: 100% | residual activity [14]: 100% | residual activity [15]: 100% | residual activity [16]: 71% | residual activity [17]: 100% | inhibition [18]: -5.98% | inhibition [19]: -7.67% | inhibition [20]: 7.34% | residual activity [21]: 56% | residual activity [22]: 32% | residual activity [23]: 79% | residual activity [24]: 81% | residual activity [25]: 100% | residual activity [26]: 83% | residual activity [27]: 98% | residual activity [28]: 100% | residual activity [29]: 100% | inhibition [30]: 7.59% | residual activity [31]: 100% | residual activity [32]: 100% | residual activity [33]: 100% | residual activity [34]: 100% | residual activity [35]: 100% | residual activity [36]: 100% | residual activity [37]: 98% | residual activity [38]: 85% | residual activity [39]: 100% | residual activity [40]: 100% | residual activity [41]: 100% | residual activity [42]: 100% | residual activity [43]: 100% | residual activity [44]: 100%

Cc1c(NC(=O)c2cc(C(N)=O)nc3cc(F)ccc23)c(C(F)(F)F)nn1Cc1ccc(C#N)cc1 [BAY-876]
residual activity [1]: 97% | residual activity [2]: 78% | residual activity [3]: 75% | residual activity [4]: 67% | inhibition [5]: -2.5% | residual activity [6]: 90% | residual activity [7]: 83% | residual activity [8]: 84% | residual activity [9]: 99% | residual activity [10]: 91% | residual activity [11]: 80% | residual activity [12]: 100% | residual activity [13]: 83% | residual activity [14]: 100% | residual activity [15]: 92% | residual activity [16]: 83% | residual activity [17]: 83% | inhibition [18]: -8.82% | inhibition [19]: 2.6% | inhibition [20]: 5.66% | residual activity [21]: 100% | residual activity [22]: 85% | residual activity [23]: 90% | residual activity [24]: 76% | residual activity [25]: 100% | residual activity [26]: 82% | residual activity [27]: 58% | residual activity [28]: 70% | residual activity [29]: 83% | inhibition [30]: -7.03% | residual activity [31]: 70% | residual activity [32]: 99% | residual activity [33]: 97% | residual activity [34]: 85% | residual activity [35]: 97% | residual activity [36]: 67% | residual activity [37]: 95% | residual activity [38]: 82% | residual activity [39]: 97% | residual activity [40]: 96% | residual activity [41]: 78% | residual activity [42]: 96% | residual activity [43]: 88% | residual activity [44]: 89%

— ChEMBL document CHEMBL4507267 (2021)
